Earlier results on one substance are cited in patent US6881426B2, “Echinacea angustifolia extracts” (priority 2002, dated 2005).

The data set deals with hyaluronidase.

With echinacoside, the hyaluronidase inhibition result is listed as “inhibition”.
